Experimental data taken from US4866052A, “Treatment of sickle cell disease” (National Research Development Corporation, priority 1986, dated 1989).
Each block holds one compound with its values, some of them ahead of it.

Columns and labels:
Normal erythrocytes = assay: Oxygen dissociation curve / oxygen affinity, normal erythrocytes; assay type: cell-based, human
Procedure: (§1) (1) A 50% suspension of human erythrocytes in pH 7.09 8BisTris/NaCl buffer005M BisTris(bis(2-hydroxyethyl)imino-tris(hydroxymethyl)methane and 0.13M NaCl was incubated for 15 minutes at 37° C. with the 2:1 zinc(II) complex of 2-ethyl-3-hydroxy-4-pyrone in the presence of an excess of the ligand-forming compound, the complex being formed in situ using zinc sulphate and a 10 molar excess of 2-ethyl-3-hydroxy-4-pyrone (to provide the 2:1 complex and an 8 molar excess of the pyrone). The oxygen dissociation curve of the erythrocytes was then determined using the method of Bellingham and Huehns (Nature, -968, 218, 924-926) which involves measuring the change of OD at two wavelengths (570 and 555 nm) after the sequential measured addition of oxygen in a tanometer. The experiment was conducted using normal erythrocytes, 2,3-diphosphoglyceric acid (DPG) depleted erythrocytes, foetal erythocytes and sickle erythrocytes. A 2.5 mM concentration of zinc was employed in each case together with a proportion of erythrocytes such as to provide a 2:1 ratio of zinc:haemoglobin and consequent saturation of the haemoglobin by zinc, except in one experiment where the proportion was varied to provide a ratio varying from 0.5:1 to 2:1. In each case a control was carried out in the absence of any zinc sulphate or 2-ethyl-3-hydroxy-4-pyrone and in one case two additional controls were carried out in the presence of one of these compounds used alone. The values for p(O2)50 (i.e. the oxygen pressure at which 50% of the haemoglobin is in the oxygenated form) obtained in each case are shown in Table 2 (together with the inferred Zn:Hb ratio) from which it will be seen that the oxygen affinity of normal erythrocytes, and also of sickle erythrocytes, is increased through treatment of the cells with zinc(II) (2-ethyl-3-hydroxy-4-pyrone)2. Foetal erythrocytes, which contain Hb-F and therefore show different characteristics from normal eythrocytes which contain Hb-A, were as expected not affected. […] With sickle erythrocytes the effect is even more marked as is further illustrated in (2) below.
(§2) (2) The effect of the 2:1 2-ethyl-3-hydroxy-4-pyrone:zinc(II) complex on normal and sickle erythrocytes was further compared using a basically similar procedure to that described in (-) above. Concentrations of 2.5 mM ZnSO4 and 25 mM pyrone, and a 2:1 Zn:Hb ratio were again used but the incubation period was extended to 1 hour. In each case a control experiment was carried out in the absence of any zinc sulphate or pyrone.
(3) The effect of different concentrations of the 2:1 2-ethyl-3-hydroxy-4-pyrone:zinc(II) complex upon normal erythrocytes was studied using a basically similar procedure to that described in (l) above but with ZnSO4 concentrations of 0.1, 1 and 10 mM (and ten times these concentrations of the pyrone) and extending the incubation period to 1 hour. A control experiment was carried out in the absence of any zinc sulphate or pyrone.

haemoglobin [1] = molecular target: T1, haemoglobin (Homo sapiens, UniProt P68871+P69905); assay: Uptake of 65Zn from 2:1 zinc(II) complexes by haemoglobin in human erythrocytes; assay type: cell-based; details: 2:1 zinc complex 5 x 10^-4M with excess ligand, 1 hour, 37° C., pH 7.4, human erythrocytes
T1 construct: A 5% suspension of human erythrocytes in aqueous sodium chloride; endogenous in cells; host or cells: human erythrocytes (intact, 5% suspension)
T1 sequence (P69905 2-142 limits assumed): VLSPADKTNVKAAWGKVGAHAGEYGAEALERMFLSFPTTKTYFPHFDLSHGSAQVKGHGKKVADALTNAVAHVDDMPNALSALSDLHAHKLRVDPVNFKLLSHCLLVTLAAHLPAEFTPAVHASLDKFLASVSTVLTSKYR
T1 sequence (P68871 2-147 limits assumed): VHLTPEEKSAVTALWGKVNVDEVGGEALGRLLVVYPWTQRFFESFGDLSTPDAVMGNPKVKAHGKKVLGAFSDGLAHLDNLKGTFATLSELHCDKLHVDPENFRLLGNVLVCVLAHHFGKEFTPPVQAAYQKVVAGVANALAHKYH
Procedure: (§3) Uptake of zinc from complexes by haemoglobin (1) A 5% suspension of human erythrocytes in aqueous sodium chloride (b 130 mM) buffered to pH 7.4 by 20 mM Tris hydrochloride (2 ml) was incubated for 1 hour at 37° C. with the 2:1 zinc(II) complex in the presence of an excess of the ligand-forming compound. The complex was formed in situ in the buffer using ^65 Zn labelled ZnSO4 at a concentration selected over a range from 1×10^-6 to 4×10^-3 M compound at ten times this concentration and a small amount of Tris free base (to about 2 mM) added to the medium to avoid an acid pH on reaction of the ZnSO4 and the compound to form the complex. Following the period of incubation, an aliquot of the erythrocyte/medium mixture was placed above a layer of silicone oil and the erythrocytes separated by […] centrifugation through the oil. The ^65 Zn levels associated with the erythrocytes and the incubation medium were then counted and the distribution ratio (concentration in erythrocytes/concentration in medium) calculated. The average distribution ratios of zinc obtained in a series of experiments for the homogeneous 2:1 complex from the ligand-providing compounds 3-hydroxy-2methyl-4-pyrone, 2-ethyl-3-hydroxy-4-pyrone and 3-hydroxy-2-(1'-methylethyl)-4-pyrone at a concentration of 5 x 10^-4M are shown in Table 1 together with the percentage of the total amount of zinc which is absorbed in the erythrocytes.

erythrocyte ghosts = assay: Uptake of 65Zn by erythrocyte ghosts lacking haemoglobin; assay type: cell-based, human; details: 2.5 mM 65ZnSO4 and 25 mM 2-ethyl-3-hydroxy-4-pyrone
Procedure: as §3, with “The average distribution ratios of zinc obtained in a series of experiments for the homogeneous 2:1 complex from the ligand-providing compounds 3-hydroxy-2methyl-4-pyrone, 2-ethyl-3-hydroxy-4-pyrone and 3-hydroxy-2-(1'-methylethyl)-4-pyrone at a concentration of 5 x 10^-4M are shown in Table 1 together with the percentage of the total amount of zinc which is absorbed in the erythrocytes.” left out

haemoglobin [2] = assay: Donation of zinc to haemoglobin, elution profile of 65Zn label on PD-10 column; assay type: binding
Procedure: There was no evidence of any saturation of the rate of uptake over the concentration range studied so that the complex is not actively transported and, in order to account for the high distribution ratios observed, the zinc must therefore dissociate from the complex and bind to a macromolecule or membrane associated with the erythrocyte. The experiment just described was repeated at a concentration of 2.5 mM ^65 ZnSO4 and 25 mM 2-ethyl-3-hydroxy-4-pyrone using erythrocyte ghosts in which the haemoglobin is lacking rather than whole erythrocytes. […] (2) The ability of the zinc(II) complex of 2-ethyl-3-hydroxy-4-pyrone to donate zinc to haemoglobin was investigated by [j studying the elution profile of the ^65 Zn label when a mixture of haemoglobin and the ^65 Zn-labelled complex (at 1 mM concentration)in NaCI (130 mM) buffered to pH 7.4 by Tris hydrochloride is applied to a PD-10 colum (Sephadex […] gel permeation column - Pharmacia).

[3] = tested on: DPG depleted erythrocytes; assay: Oxygen dissociation curve / oxygen affinity, DPG depleted erythrocytes; assay type: cell-based, human; details: 2.5 mM ZnSO4 + 25 mM pyrone, Zn:Hb 2:1; control 15.75
Procedure: (§4) (1) A 50% suspension of human erythrocytes in pH 7.09 8BisTris/NaCl buffer005M BisTris(bis(2-hydroxyethyl)imino-tris(hydroxymethyl)methane and 0.13M NaCl was incubated for 15 minutes at 37° C. with the 2:1 zinc(II) complex of 2-ethyl-3-hydroxy-4-pyrone in the presence of an excess of the ligand-forming compound, the complex being formed in situ using zinc sulphate and a 10 molar excess of 2-ethyl-3-hydroxy-4-pyrone (to provide the 2:1 complex and an 8 molar excess of the pyrone). The oxygen dissociation curve of the erythrocytes was then determined using the method of Bellingham and Huehns (Nature, -968, 218, 924-926) which involves measuring the change of OD at two wavelengths (570 and 555 nm) after the sequential measured addition of oxygen in a tanometer. The experiment was conducted using normal erythrocytes, 2,3-diphosphoglyceric acid (DPG) depleted erythrocytes, foetal erythocytes and sickle erythrocytes. A 2.5 mM concentration of zinc was employed in each case together with a proportion of erythrocytes such as to provide a 2:1 ratio of zinc:haemoglobin and consequent saturation of the haemoglobin by zinc, except in one experiment where the proportion was varied to provide a ratio varying from 0.5:1 to 2:1. […]

Foetal erythrocytes = assay: Oxygen dissociation curve / oxygen affinity, foetal erythrocytes; assay type: cell-based, human
Procedure: as §4

Sickle erythrocytes = assay: Oxygen dissociation curve / oxygen affinity, sickle erythrocytes; assay type: cell-based, human
Procedure: as §1, §2

- Distribution ratio (concentration in erythrocytes/concentration in medium) (haemoglobin [1]): 300
- Percentage of zinc absorbed (haemoglobin [1]): 96%
Structure (SMILES): CCc1occc(=O)c1[O-].CCc1occc(=O)c1[O-].[Zn+2] [zinc(II) (2-ethyl-3-hydroxy-4-pyrone)2]
- uptake of zinc by erythrocyte ghosts (in words) (erythrocyte ghosts): Only a low level of uptake of zinc was observed
- binding of zinc to haemoglobin (in words) (haemoglobin [2]; 1 mM complex, 20-fold molar proportion of ligand:zinc, NaCl 130 mM, pH 7.4): the zinc is found to bind tightly to haemoglobin
- binding of zinc to haemoglobin versus ligand (in words) (haemoglobin [2]; haemoglobin versus 2-ethyl-3-hydroxy-4-pyrone): zinc binds more tightly to haemoglobin than to 2-ethyl-3-hydroxy-4-pyrone
- P(O2)50 (Normal erythrocytes; 2.5 mM ZnSO4 + 25 mM pyrone, Zn:Hb 0.5:1, control 30.0): 23.5 mmHg
- P(O2)50 (Normal erythrocytes; 2.5 mM ZnSO4 + 25 mM pyrone, Zn:Hb 1:1, control 30.0): 17.0 mmHg
- P(O2)50 (Normal erythrocytes; 2.5 mM ZnSO4 + 25 mM pyrone, Zn:Hb 1.5:1, control 30.0): 15.0 mmHg
- P(O2)50 (Normal erythrocytes; 2.5 mM ZnSO4 + 25 mM pyrone, Zn:Hb 2:1, control 26): 15.5 mmHg
- P(O2)50 (Normal erythrocytes; 2.5 mM ZnSO4 + 25 mM pyrone, Zn:Hb 2:1, control 27.5): 15 mmHg
- P(O2)50 (Normal erythrocytes; 2.5 mM ZnSO4 + 25 mM pyrone, Zn:Hb 2:1, control 30.0): 15.0 mmHg
- shift in the oxygen dissociation curve (in words) (Normal erythrocytes; 2.5 mM ZnSO4, 25 mM pyrone, 1 hour, FIG. 1a): a significant left shift in the oxygen dissociation curve
- p(O2)50, treated cells (Normal erythrocytes; 2.5 mM ZnSO4 and 25 mM pyrone, Zn:Hb 2:1, 1 hour (FIG. 1a), control 27.5): 15.0 mm Hg
- p(O2)50 shift (Normal erythrocytes; 2.5 mM ZnSO4 and 25 mM pyrone, Zn:Hb 2:1, 1 hour, versus control, normal erythrocytes): 12.5 mm Hg
- dose response of shift in the oxygen dissociation curve (in words) (Normal erythrocytes; ZnSO4 0.1, 1 and 10 mM with ten times pyrone, 1 hour, FIG. 2): dose response effect
- shift in the oxygen dissociation curve (in words) (Normal erythrocytes; complex 0.1 mM, 1 hour, FIG. 2): still a discernible left shift in the oxygen dissociation curve
- oxygen affinity (in words) (Normal erythrocytes; normal erythrocytes, 2.5 mM zinc, 15 minutes): increased
- P(O2)50 [3]: 9.25 mmHg
- P(O2)50 (Foetal erythrocytes; 2.5 mM ZnSO4 + 25 mM pyrone, Zn:Hb 0:1 (assumed no uptake by HbF), control 22): 24 mmHg
- oxygen affinity (in words) (Foetal erythrocytes; foetal erythrocytes, 2.5 mM zinc, 15 minutes): not affected
- P(O2)50 (Sickle erythrocytes; 2.5 mM ZnSO4 + 25 mM pyrone, Zn:Hb 2:1, control 36): 18.5 mmHg
- shift in the oxygen dissociation curve (in words) (Sickle erythrocytes; 2.5 mM ZnSO4, 25 mM pyrone, 1 hour, FIG. 1b): a significant left shift in the oxygen dissociation curve is produced in both cases but that the difference from the control is more marked for the sickle erythrocytes
- p(O2)50, treated cells (Sickle erythrocytes; 2.5 mM ZnSO4 and 25 mM pyrone, Zn:Hb 2:1, 1 hour (FIG. 1b), control 36.0): 18.5 mm Hg
- p(O2)50 shift (Sickle erythrocytes; 2.5 mM ZnSO4 and 25 mM pyrone, Zn:Hb 2:1, 1 hour, versus control, sickle erythrocytes): 17.5 mm Hg
- oxygen affinity (in words) (Sickle erythrocytes; sickle erythrocytes, 2.5 mM zinc, 15 minutes): increased

- Distribution ratio (concentration in erythrocytes/concentration in medium) (haemoglobin [1]): 550
- Percentage of zinc absorbed (haemoglobin [1]): 98%
Structure (SMILES): CC(C)c1occc(=O)c1[O-].CC(C)c1occc(=O)c1[O-].[Zn+2] [zinc(II) (3-hydroxy-2-(2'-methylethyl)-4-pyrone)2]

- Distribution ratio (concentration in erythrocytes/concentration in medium) (haemoglobin [1]): 8
- Percentage of zinc absorbed (haemoglobin [1]): 54%
Structure (SMILES): Cc1occc(=O)c1[O-].Cc1occc(=O)c1[O-].[Zn+2] [zinc(II) (3-hydroxy-2-methyl--pyrone)2]

Continued, compound first:

Structure (SMILES): O=S(=O)([O-])[O-].[Zn+2] [ZnSO4, zinc sulphate, reference compound]
- P(O2)50 (Normal erythrocytes; 2.5 mM ZnSO4 alone, Zn:Hb 2:1, control 26): 24.5 mmHg

Structure (SMILES): CCc1occc(=O)c1O [pyrone, 2-ethyl-3-hydroxy-4-pyrone, reference compound]
- P(O2)50 (Normal erythrocytes; 2.5 mM pyrone alone, Zn:Hb 0:1, control 26): 28 mmHg
